# What was measured:
# [1] = system: morphine analgesia in rats; test: Potentiation of intrathecal morphine analgesia, Hargreaves test; format: in vivo, rat; conditions: about 20 μg co-administered with morphine intrathecally, FIG. 6B
# [2] = molecular target: T1, human TLR4 (Homo sapiens, UniProt O00206); format: cell-based
# T1 construct: host or cells: HEK 293
# T1 sequence (O00206 24-839): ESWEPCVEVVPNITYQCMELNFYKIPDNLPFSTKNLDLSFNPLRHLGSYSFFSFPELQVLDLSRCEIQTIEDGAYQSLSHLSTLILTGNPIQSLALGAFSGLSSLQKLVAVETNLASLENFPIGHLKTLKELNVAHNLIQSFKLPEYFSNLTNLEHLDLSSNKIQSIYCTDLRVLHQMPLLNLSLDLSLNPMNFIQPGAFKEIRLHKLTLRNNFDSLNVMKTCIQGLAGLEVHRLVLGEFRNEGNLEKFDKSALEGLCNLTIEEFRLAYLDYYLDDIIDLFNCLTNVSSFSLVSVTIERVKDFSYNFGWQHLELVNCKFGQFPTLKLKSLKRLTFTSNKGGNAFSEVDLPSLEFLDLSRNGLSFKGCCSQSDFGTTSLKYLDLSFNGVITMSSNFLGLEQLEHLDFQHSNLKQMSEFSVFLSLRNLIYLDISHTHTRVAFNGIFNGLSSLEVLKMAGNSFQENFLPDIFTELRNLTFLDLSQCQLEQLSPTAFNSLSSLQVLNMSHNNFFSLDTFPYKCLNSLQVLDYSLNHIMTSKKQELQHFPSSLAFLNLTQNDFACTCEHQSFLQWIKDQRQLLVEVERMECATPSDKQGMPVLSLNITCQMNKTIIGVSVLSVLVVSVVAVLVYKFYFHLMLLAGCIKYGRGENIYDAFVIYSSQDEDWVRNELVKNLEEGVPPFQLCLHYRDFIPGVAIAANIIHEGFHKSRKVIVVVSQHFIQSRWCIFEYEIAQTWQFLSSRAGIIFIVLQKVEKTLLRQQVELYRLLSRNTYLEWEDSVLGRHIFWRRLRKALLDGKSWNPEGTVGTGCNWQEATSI
# T1 sequence (Q9Y6Y9 17-160 partner limits assumed): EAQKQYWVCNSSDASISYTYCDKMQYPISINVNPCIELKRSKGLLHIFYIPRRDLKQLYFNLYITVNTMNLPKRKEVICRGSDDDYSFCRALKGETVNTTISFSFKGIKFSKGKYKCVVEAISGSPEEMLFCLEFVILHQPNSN
smiles,measurement,setting,value
O=c1c(O)c(-c2ccc(O)c(O)c2)oc2cc(O)cc(O)c12 [quercetin],potentiation of morphine analgesia,[1],significant potentiation
CN1CC[C@]23c4c5ccc(O)c4O[C@H]2[C@@H](O)C=C[C@H]3[C@H]1C5 [morphine],TLR4 agonism,[2],TLR4 agonists
CCOC(=O)C1(c2ccccc2)CCN(C)CC1 [pethadine/meperidine],TLR4 agonism,[2],TLR4 agonists
COc1ccc2c3c1O[C@H]1C(=O)CC[C@@]4(O)[C@@H](C2)N(C)CC[C@]314 [oxycodone],TLR4 agonism,[2],TLR4 agonists
CCC(=O)C(CC(C)N(C)C)(c1ccccc1)c1ccccc1 (centres unmarked) [methadone],TLR4 agonism,[2],TLR4 agonists

# From patent publication US20100239523A1 (priority 2007, published 2010)
